According to US6117975A, “Melanocortin receptor polypeptides MC-3, MC-4, and MC-5” (The Regents of the University of Michigan, priority 1996, dated 2000):
No end group written: not given here.

T1: MC1 receptor (Homo sapiens, UniProt Q01726, R163Q/S90T)
T1 construct: expressed in transfected cells
T1 sequence (Q01726 1-317 S90T/R163Q): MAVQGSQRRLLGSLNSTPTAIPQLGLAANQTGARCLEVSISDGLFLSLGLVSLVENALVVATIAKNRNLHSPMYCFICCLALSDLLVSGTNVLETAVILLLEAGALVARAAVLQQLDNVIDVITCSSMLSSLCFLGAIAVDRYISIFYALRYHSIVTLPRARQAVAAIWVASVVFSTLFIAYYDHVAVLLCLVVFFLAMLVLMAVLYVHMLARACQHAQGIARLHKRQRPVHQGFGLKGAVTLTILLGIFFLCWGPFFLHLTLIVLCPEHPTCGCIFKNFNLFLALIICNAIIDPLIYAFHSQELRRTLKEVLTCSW


Legend:
MC4 receptor [1] = molecular target: T2, MC4 receptor (Homo sapiens, UniProt P32245); assay: intracellular cAMP content in Hepa cells transfected with the MC4 receptor; type: cell-based
T2 construct: expressed in transfected cells; host or cells: COS-1 (transient, lipofection); Hepa rat hepatoma; CMVneo vector
T2 sequence (P32245 whole entry): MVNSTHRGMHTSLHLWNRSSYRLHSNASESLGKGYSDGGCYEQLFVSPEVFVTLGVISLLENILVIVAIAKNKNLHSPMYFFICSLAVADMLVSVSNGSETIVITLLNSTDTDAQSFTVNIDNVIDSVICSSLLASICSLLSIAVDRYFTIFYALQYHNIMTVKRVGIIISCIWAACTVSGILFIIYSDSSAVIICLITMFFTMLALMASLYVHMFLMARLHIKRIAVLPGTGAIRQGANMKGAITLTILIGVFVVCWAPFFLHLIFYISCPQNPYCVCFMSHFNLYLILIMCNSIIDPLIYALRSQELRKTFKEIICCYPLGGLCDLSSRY

MC1 receptor = molecular target: T1, MC1 receptor; assay: cAMP generation in L-cells transfected with the MC1 receptor; type: cell-based
Source text: (§1) Receptor Expression. […] The sequences were subsequently checked by nucleotide sequencing to insure that no sequence errors were induced by PCR. L-cells (a mouse fibroblast-like cell line) were transfected using a calcium phosphate co-precipitation method as described in Chen, C. A. et al. Bio/Techniques 6:632-638 (1988). Permanently transfected L-cells were selected by resistance to the neomysin analogue G418, and receptor mRNA expression was checked by Northern blot analysis. […] COS-1 cells which were transiently transfected with the CMVneo/MC4R gene construct by lipofection as described in Feigner, P. L. et al., PNAS (USA) 84:7413-7417 using the Lipofectin Reagent (Life Technologies Inc.) were split into 12-well plates after 24 hr and assayed 36 hr post-transfection.
(§2) cAMP Assays. For these assays a cAMP assay kit (TRK 432, Amersham Corp.) was employed. […] The cells were maintained in Dulbecco's modified Eagle's medium (GIBCO) containing 4.5 g/100 ml glucose, 10% fetal calf serum, 100 units/ml penicillin and streptomycin, 1 mM sodium pyruvate, and 1 mg/ml Geneticin. […] An aliquot (0.5 ml) of Earle's balanced salt solution was placed into each well along with 5 μl of 2×10^-2 M isobutylmethylxanthine. Varying concentrations of agonist were added, and the cells were incubated to 30 min at 37° C. Ice-cold 30% trichloracetic acid (500 μl/well) was added to stop the reaction and precipitate cellular protein. The cells were scraped and transferred to 16×150-mm glass tubes, then placed on ice for 30 min. The precipitate was then centrifuged for 10 min at 1,900×g, and the supernatant was ether extracted, lyophilized, and resuspended in 50 mM Tris, 2 mM EDTA (pH 7.5). cAMP content was then measured by a competitive binding assay according to the assay instructions.

MC4 receptor [2] = molecular target: T2, MC4 receptor; assay: cAMP generation in L-cells transfected with the MC4 receptor gene; type: cell-based
Source text: as §1, §2

MC3 receptor [3] = molecular target: T3, MC3 receptor (Homo sapiens, UniProt P41968); assay: cAMP generation in L-cells transfected with the MC3 receptor; type: cell-based; parameters: these were utilized to obtain full-length genomic clones by screening a genomic library; expressed in transfected cells; CMVneo vector
T3 sequence (P41968 whole entry): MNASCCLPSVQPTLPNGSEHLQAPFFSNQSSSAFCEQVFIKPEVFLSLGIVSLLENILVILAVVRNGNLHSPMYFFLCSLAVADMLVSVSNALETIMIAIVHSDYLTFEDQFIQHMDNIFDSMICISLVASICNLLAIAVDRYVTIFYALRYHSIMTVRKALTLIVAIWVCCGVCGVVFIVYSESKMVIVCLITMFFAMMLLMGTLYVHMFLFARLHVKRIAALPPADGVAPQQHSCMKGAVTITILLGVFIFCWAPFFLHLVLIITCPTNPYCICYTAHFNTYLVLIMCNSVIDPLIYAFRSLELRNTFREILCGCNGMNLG
Source text: as §1, §2

mMC5 receptor = molecular target: T4, mMC5 receptor (Mus musculus, UniProt P41149); assay: cAMP generation in L-cells transfected with the mMC5 receptor; type: cell-based
T4 construct: expressed in transfected cells
T4 sequence (P41149 whole entry): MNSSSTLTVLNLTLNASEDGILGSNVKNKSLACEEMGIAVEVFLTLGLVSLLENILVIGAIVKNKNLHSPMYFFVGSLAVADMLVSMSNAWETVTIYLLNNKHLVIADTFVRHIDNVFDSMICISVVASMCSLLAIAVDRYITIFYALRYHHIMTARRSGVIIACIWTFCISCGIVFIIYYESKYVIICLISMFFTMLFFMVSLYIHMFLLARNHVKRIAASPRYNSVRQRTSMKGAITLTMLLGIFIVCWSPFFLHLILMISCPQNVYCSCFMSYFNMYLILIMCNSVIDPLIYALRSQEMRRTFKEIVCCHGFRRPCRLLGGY
Source text: as §1, §2

MC3 receptor [4] = molecular target: T3, MC3 receptor; assay: [3H] inositol phosphate (IP) production in Hepa cells transfected with the MC3 receptor
Source text: Receptor Gene Expression. The coding region of the MC3 receptor gene was subcloned into the eukaryotic expression vector CMVneo using a polymerase chain reaction (PCR) strategy as previously described. […] The insert was subsequently checked by dideoxynucleotide sequencing to insure that no errors were induced by the PCR. A rat hepatoma cell line (Hepa) which lacks endogenous melanocortin receptors was transfected with the CMVneo/MC3 receptor construct using the calcium phosphate co-precipitation method. […] Cells were selected for resistance to the neomycin analogue Geneticin (Life Sciences) and clones were subsequently chosen for high levels of receptor mRNA expression by Northern blot analysis.
Inositol Phosphate (IP) Assays. Measurement of inositol phospholipid turnover in Hepa cells was performed according to a modification of previously published methods as follows. […] Cells grown to semi-confluence in multiwell plates were prelabeled with [2-^3 H] myo-inositol in DMEM for 24 hr, incubated in EBSS for 30 min, then incubated for another 15 min in EBSS with 10 mM LiCl. The final incubation was in media with experimental ligand added for up to three min after which ice cold 100% methanol was added and the cells were scraped and extracted with 2 ml chloroform, 10 μl HCl (13 N), and 200 μl of 100 mM EDTA in a 50 ml polypropylene tube. The mixture was then vortexed and centrifuged at 1,900 X g. The supernatant was removed and its pH was adjusted to 7.0 by adding 1 N NaOH. Waters Accel plus QMA SEP-PAK anion exchange cartridges (Waters Chromatography, Millipore Corporation, Milford, Mass.) were used to separate inositol phosphates under differing concentrations of formatelformic acid. The cartridges were pretreated by washing with 10 ml of a solution of 1 M ammonium formate in 0.1 M formic acid followed by 20 ml of distilled water. The samples were applied with a flow rate of approximately 10 ml/min using a 10 ml syringe. IPs were then eluted using 10 mM increments of ammonium formate in a stepwise fashion. Inositol monophosphate was eluted with 10 mM formic acid/100 mM ammonium formate/5 mM disodium tetraborate, inositol bisphosphate was eluted with 20 mM formic acid/200 mM ammonium formate/5 mM disodium tetraborate, and IP3 was eluted with 30 mM formic acid/300 mM ammonium formate/5 mM disodium tetraborate. […] Eluted radioactivity from the pooled fractions (total inositol phosphates) were measured by liquid-scintillation spectrometry (Beckman model LS7800 instrument).

MC3 receptor [5] = molecular target: T3, MC3 receptor; assay: intracellular cAMP content in Hepa cells transfected with the MC3 receptor; type: cell-based; parameters: these were utilized to obtain full-length genomic clones by screening a genomic library; expressed in transfected cells; CMVneo vector
Description: Receptor Expression. […] The sequences were subsequently checked by nucleotide sequencing to insure that no sequence errors were induced by PCR. […] A rat hepatoma cell line (Hepa) which lacks endogenous melanocortin receptors was also transfected with the CMVneo/MC3R and CMVneo/MC4R constructs.
cAMP Assays. For these assays a cAMP assay kit (TRK 432, Amersham Corp.) was employed. Cells transfected with the receptors were grown to confluence in 12-well (2.4×1.7 cm) tissue culture plates. The cells were maintained in Dulbecco's modified Eagle's medium (GIBCO) containing 4.5 g/100 ml glucose, 10% fetal calf serum, 100 units/ml penicillin and streptomycin, 1 mM sodium pyruvate, and 1 mg/ml Geneticin. For assays, this medium was removed and cells were washed twice with Earle's balanced salt solution containing 10 mM Hepes (pH 7.4), 1 mM glutamine, 26.5 mM sodium bicarbonate, and 100 mg/ml bovine serum albumin. An aliquot (0.5 ml) of Earle's balanced salt solution was placed into each well along with 5 μl of 2×10^-2 M isobutylmethylxanthine. Varying concentrations of agonist were added, and the cells were incubated to 30 min at 37° C. Ice-cold 30% trichloracetic acid (500 μl/well) was added to stop the reaction and precipitate cellular protein. The cells were scraped and transferred to 16×150-mm glass tubes, then placed on ice for 30 min. The precipitate was then centrifuged for 10 min at 1,900×g, and the supernatant was ether extracted, lyophilized, and resuspended in 50 mM Tris, 2 mM EDTA (pH 7.5). cAMP content was then measured by a competitive binding assay according to the assay instructions.
Receptor Gene Expression. The coding region of the MC3 receptor gene was subcloned into the eukaryotic expression vector CMVneo using a polymerase chain reaction (PCR) strategy as previously described. […] The insert was subsequently checked by dideoxynucleotide sequencing to insure that no errors were induced by the PCR. […]

[6] = read-out: ED50, cAMP generation

Row | Molecule | cAMP response (in words) (MC1 receptor) | cAMP response (in words) (MC4 receptor [2]) | cAMP response (in words) (MC3 receptor [3]) | cAMP response (in words) (mMC5 receptor) | also measured
1 | Thr^1, Pro^11 y-MSH |  |  |  |  | cAMP response (in words) (MC4 receptor [1]): diminished both the potency and efficacy
2 | β-endorphin | neither the MC1 receptor nor the MC3 receptor responded | did not respond | neither the MC1 receptor nor the MC3 receptor responded | Neither were the other products of pro-opiomelanocortin processing, β-endorphin, met-enkephlin, or porcine β-lipotropin active | 
3 | [Met]enkephalin | neither the MC1 receptor nor the MC3 receptor responded | did not respond | neither the MC1 receptor nor the MC3 receptor responded | Neither were the other products of pro-opiomelanocortin processing, β-endorphin, met-enkephlin, or porcine β-lipotropin active | 
4 | SYSMEHFRWGKPVGKKRRPVKVYPNGAEDESAEAFPLEF [ACTH, ACTH(1-39)] |  |  |  |  | EC50 (MC1 receptor; [6]): ~1 nM; EC50 (MC4 receptor [2]; read-out: half-maximal effect (EC50), intracellular cAMP): 1 nM; EC50 (MC3 receptor [3]; [6]): ~1 nM
5 | CSCC[C@H](N)C(=O)N[C@@H](CCC(=O)O)C(=O)N[C@@H](Cc1c[nH]cn1)C(=O)N[C@@H](Cc1ccccc1)C(=O)N[C@@H](CCCNC(=N)N)C(=O)N[C@@H](Cc1c[nH]c2ccccc12)C(=O)NCC(=O)O [ACTH(4-10)] |  |  |  |  | Emax (MC4 receptor [1]; read-out: efficacy, % of the maximal response of ACTH (1-13)): 30%
6 | Rat ACTH: rat ACTH, which differs from human ACTH in two amino acids (SYSMEHFRWGKPVGKKRRPVKVYPNVAENESAEAFPLEF; Corticotropin; UniProt P01194 124-162, looked up) |  |  |  | produced the same results | 
7 | CCCC(=O)Nc1ncnc2c1ncn2[C@@H]1O[C@@H]2COP(=O)(O)O[C@H]2[C@H]1OC(=O)CCC [dbcAMP, dibutryl cAMP] |  |  |  |  | effect on α-MSH stimulated [3H]-IP production (in words) (MC3 receptor [4]): dose dependently inhibited the level of [^3 H]-IP turnover in response to α-MSH
8 | [des-acetyl] α-MSH | identical to those observed for ACTH and α-MSH |  | identical to those observed for ACTH and α-MSH |  | cAMP response (in words) (MC4 receptor [1]): no difference was observed; cAMP response (in words) (MC3 receptor [5]): no difference was observed
9 | CSCC[C@H](NC(=O)[C@@H](NC(=O)[C@@H](N)Cc1ccc(O)cc1)C(C)C)C(=O)NCC(=O)N[C@@H](Cc1c[nH]cn1)C(=O)N[C@@H](Cc1ccccc1)C(=O)N[C@@H](CCCNC(=N)N)C(=O)N[C@@H](Cc1c[nH]c2ccccc12)C(=O)N[C@@H](CC(=O)O)C(=O)N[C@@H](CCCNC(=N)N)C(=O)N1CCC[C@H]1C(=O)NCC(=O)O [Pro^11 y-MSH] |  |  |  |  | efficacy, intracellular cAMP (MC4 receptor [1]; α-MSH as reference for maximum response): 75%; EC50 (MC4 receptor [1]; α-MSH dose response curve as reference for maximum response): 100 nM
10 | β-lipotropin (peptide, UniProt P01192 177-267, looked up, listed as Lipotropin beta, product of pro-opiomelanocortin processing) Lipotropin beta: ELAGAPPEPARDPEAPAEGAAARAELEYGLVAEAEAAEKKDEGPYKMEHFRWGSPPKDKRYGGFMTSEKSQTPLVTLFKNAIVKNAHKKGQ |  | small increase in cAMP |  | Neither were the other products of pro-opiomelanocortin processing, β-endorphin, met-enkephlin, or porcine β-lipotropin active | 
